Test results: ChEMBL document CHEMBL1159104, “Potent transglutaminase inhibitors, aryl beta-aminoethyl ketones” (Bioorg Med Chem Lett, 2010)

Target: T1, Protein-glutamine gamma-glutamyltransferase (Cavia porcellus, UniProt Q7M0F8)
T1 sequence (Q7M0F8 whole entry): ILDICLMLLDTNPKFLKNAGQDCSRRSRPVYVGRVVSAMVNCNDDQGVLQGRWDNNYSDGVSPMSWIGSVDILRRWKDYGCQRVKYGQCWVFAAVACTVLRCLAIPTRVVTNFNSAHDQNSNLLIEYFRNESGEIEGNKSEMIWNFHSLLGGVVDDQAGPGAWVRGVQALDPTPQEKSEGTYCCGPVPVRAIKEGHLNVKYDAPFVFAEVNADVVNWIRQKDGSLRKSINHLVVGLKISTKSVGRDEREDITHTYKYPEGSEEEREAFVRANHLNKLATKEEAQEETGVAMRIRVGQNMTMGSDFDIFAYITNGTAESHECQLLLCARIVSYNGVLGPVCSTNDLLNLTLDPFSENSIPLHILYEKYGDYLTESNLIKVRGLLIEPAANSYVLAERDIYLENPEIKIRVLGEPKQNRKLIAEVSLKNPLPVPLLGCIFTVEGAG
Assay: Inhibition of guinea pig liver transglutaminase

IC50 [µM]	Structure (SMILES)
18	CN(CCC(=O)c1ccc(Oc2ccccc2)cc1)Cc1ccccc1
12	CC(C)N(CCC(=O)c1ccc(Oc2ccccc2)cc1)Cc1ccccc1
7.4	CCCCN(CCO)CCC(=O)c1ccc(Oc2ccccc2)cc1
